As a reminder, the inhibition is the change of the read-out against control, counted positive when it falls.

The text below walks through data of US5225436A, “Aryl substituted naphthalene derivatives” (Schering Corporation, priority 1991, dated 1993).

Experiment [1] concerns SRS-A / leukotriene release from antigen-challenged, sensitized guinea pig lung. The experiment in a line: Inhibition of SRS-A (leukotriene) release from antigen-challenged, sensitized guinea pig lung. Format: cell-based. To be noted: Cavia porcellus; for inhibition: Dose 30 μm (μM). Set-up: inhibition: dose or concentration left out as unconfirmed. The text has this:
The anti-allergy method of this invention is identified by tests which measure a compound's inhibition of leukotriene release in sensitized guinea pigs. Sensitized guinea pigs are killed by a blow to the head and the lungs removed and cleaned of visible connective tissue, trachea and large blood vessels. The lungs from individual animals are sliced into fragments approximately 1 mm in thickness using a McIlwain tissue chopper and then washed with oxygenated Tyrode's buffer. Weighed aliquots (approximately 400 mg wet weight) of lung are transferred into vials containing 2 ml of fresh Tyrode's solution (containing 10 mM cysteine) and incubated in the presence or absence of test compound for 12 min at 37° C. The tissues are then challenged with 20 μg ovalbumin/ml (final concentration) and incubated for 15 min. To measure leukotriene release, an aliquot of supernatant fluid is extracted with 4 volumes of 100% ethanol. After removal of the precipitated protein, the clear fluid is dried under a stream of N2 gas. The leukotriene content is measured by a radioimmunoassay using [^3 H]LTC4 and antiserum obtained from New England Nuclear. The cross-reactivity of the antiserum for LTD4 is 55%. Percent inhibition of lekotriene release is calculated by comparing for each lung the release in the presence of the test compound to that in the absence of test compound. Representative compounds of the invention at a relative dose of 50 μM of tissue are found to inhibit leukotriene release in the test procedure as indicated below in Table 1: […]

The target in another experiment is T1, 5-lipoxygenase (Homo sapiens, UniProt P09917).
T1 construct: Human polymorphonuclear leukocytes (neutrophils) were obtained from normal healthy volunteers; endogenous in cells; host or cells: human blood neutrophils from healthy volunteers
T1 sequence (P09917 1-674): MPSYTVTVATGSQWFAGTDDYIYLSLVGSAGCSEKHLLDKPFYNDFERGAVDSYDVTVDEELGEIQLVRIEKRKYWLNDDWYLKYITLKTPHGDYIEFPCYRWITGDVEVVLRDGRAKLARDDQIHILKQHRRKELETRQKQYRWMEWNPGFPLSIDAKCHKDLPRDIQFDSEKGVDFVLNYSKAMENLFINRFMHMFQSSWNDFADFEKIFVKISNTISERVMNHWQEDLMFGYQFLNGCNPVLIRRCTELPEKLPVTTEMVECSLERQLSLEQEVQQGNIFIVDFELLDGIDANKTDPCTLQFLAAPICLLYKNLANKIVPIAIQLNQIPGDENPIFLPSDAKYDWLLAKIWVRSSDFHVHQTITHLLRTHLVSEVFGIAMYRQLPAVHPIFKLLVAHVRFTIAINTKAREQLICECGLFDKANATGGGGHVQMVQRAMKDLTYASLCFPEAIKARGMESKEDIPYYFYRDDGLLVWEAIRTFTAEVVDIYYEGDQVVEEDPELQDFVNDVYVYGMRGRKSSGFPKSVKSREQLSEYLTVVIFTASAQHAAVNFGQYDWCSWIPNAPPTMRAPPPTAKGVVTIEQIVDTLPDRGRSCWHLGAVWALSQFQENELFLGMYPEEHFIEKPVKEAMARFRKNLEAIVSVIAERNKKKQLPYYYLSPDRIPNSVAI
Put plainly: 5-Lipoxygenase assay with human neutrophils. To be noted: 5 min, Human PMN, dose 15 μm (μM). The class given is cell-based. How it is done:
Human polymorphonuclear leukocytes (neutrophils) were obtained from normal healthy volunteers by venipuncture and collected with heparin anticoagulant. Neutrophils were isolated by Dextran/Ficol sedimentation as described (Billah et al., J. Biol. Chem. 260, 6899-6906 (1985)). In brief, 30 ml of blood was mixed with 5 ml of dextran (Sigma) solution and kept at 37° C. for 30 min. The upper white cell-rich layer was removed and 10 ml was layered on 9 ml of Ficol-Paque solution (Pharmacia) and centrifuged at 280 xg for 10 min. at 5° C. The supernatant was removed and the neutrophil pellet was resuspended in HEPES buffer containing 25 mM N-2-hydroxyethylpiperazine-N^1 -2-ethanesulfonic acid HEPES, 125 mM NaCl, 2.5 mM KCl, 0.7 mM MgCl2, […] 10 mM glucose at pH 7.4. The red cells in the suspension were lysed by hypotonic shock. The neutrophils were washed by centrifugation in HEPES buffer two times and finally resuspended at a concentration of 20×10^6 cells/ml in the presence of 1 mM CaCl2.
Neutrophils (0.2 ml of suspension) were preincubated with dimethylsulfoxide (DMSO) vehicle with or without test compound (1 ul) for 4 minutes then incubated for 5 minutes with [^14 C] arachidonic acid (Amersham, 59 Ci/mole) at a 9 uM final concentration, and the calcium ionophore A23187 (Calbiochem) at a 1 uM final concentration. These stimulants were added in 10 ul of water:ethanol (9:1). The reaction was stopped by addition of methanol (0.4 ml), and cellular debris was removed by centrifugation. Aliquots (100 ul) of the incubations were run on a Waters two pump HPLC system fitted with a DuPont Zorbax ODS, 5u, […] Reliance Cartridge column and C18 "Guard Pak". The column was initially eluted at 2 ml/min with 80% of the mixture water:methanol:acetic acid (46:54:0.08) containing 1 mM EDTA adjusted to pH 6.0 with ammonium hydroxide (Pump A) and 20% methanol (Pump B). At 10 minutes, a linear gradient to reach 100% methanol (Pump B) at 27 minutes was established. Between 27 and 28 minutes, methanol was exchanged for the initial eluting solvent and by 35 minutes the column had been reequilibrated for the next sample. The effluent was analyzed by a continuous flow radioactivity monitor (model ROMONA-D) interfaced with a Hewlett Packard Lab Automation System for quantitation of radioactive products. These were predominantly leukotriene B4 (LTB4) which eluted at 7 minutes, and 5-hydroxyeicosatetraenoic acid (5-HETE) which eluted at 20 minutes.

Like-named read-outs stand apart in the source and are kept apart here.

As to `COc1cc(OC)c2c(c1)C(C)(C)C(c1ccc(OC)c(OC)c1)CC2Sc1ccc(Cl)cc1` (centres unmarked), in experiment [1], the inhibition amounted to 14%.
Turning to `COc1cc(O)c2c(c1)C(C)(C)C(c1ccc(OC)c(OC)c1)=CC2=O`, the inhibition at 50 µM in experiment [1] was found to be 10%.
Same read-out and setting: then `CC(=O)Oc1cc(OC(C)=O)c2c(c1)C(C)(C)[C@H](c1ccc(OC(C)=O)c(OC(C)=O)c1)[C@@H](OC(C)=O)C2=O` (relative stereo), with 41%.
On to `COc1cc(OC)cc(C2=CC(=O)c3c(cc(OC)c(OC)c3OC)C2(C)C)c1` [drawing 84 [K=OCH3]], for which the inhibition in experiment [1] was 21%.
Still for that read-out and setting: then `COc1cc(OC)c2c(c1)C(C)(C)C(c1ccc(OC)c(OC)c1)CC21OCCO1` (centres unmarked), with 23%.
As for `COc1cc(OC)c2c(c1)C(C)(C)C(c1ccc(OC)c(OC)c1)CC2N` (centres unmarked), in experiment [1], the inhibition was found to be 0%. The inhibition at 15 µM at 5-lipoxygenase (read-out: % Inhibition 5-HETE) and on 5-lipoxygenase (read-out: % Inhibition LTB) was 0% each time.
`COc1cc(OC)c2c(c1)C(C)(C)C(c1ccc(OC)c(OC)c1)C(C=O)C2=O` (centres unmarked): in experiment [1], the inhibition is 19%. The inhibition at 15 µM on 5-lipoxygenase (read-out: % Inhibition 5-HETE) was 16%; on 5-lipoxygenase (read-out: % Inhibition LTB) it was 0%.
`COc1ccc(CC2CC(C)(C)c3cc(OC)cc(OC)c3C2=O)cc1` (centres unmarked) [drawing 85 [A=drawing 86; B=H]]: the inhibition in experiment [1] came to 0%.
In the case of `COc1cc(OC)c2c(c1)C(C)(C)C(c1ccc(OC)c(OC)c1)CC(C)(C)C2=O` (centres unmarked) [drawing 90 [X=O; W=CH3; J=CH3]], the inhibition in experiment [1] came out at 25%. The inhibition at 15 µM at 5-lipoxygenase (read-out: % Inhibition 5-HETE) came to 54%.
On to `COc1cc(OC)cc(C2=CC(=O)c3c(OC)cc(OC)cc3C2(C)C)c1` [drawing 84 [K=H]], for which, in experiment [1], the inhibition is 33%.
With `COc1cc(OC)c2c(c1)C(C)(C)C(c1ccc(OC)c(OC)c1)=C(O)C2=O`, the inhibition at 50 µM in experiment [1] was found to be 24%.
`COc1ccc(C2CC(=O)c3c(cc(OC)c(OC)c3OC)C2(C)C)cc1OC` (centres unmarked) [3-(3,4-dimethoxyphenyl)-3,4-dihydro-6,7,8-trimethoxy-4,4-dimethyl-1(2H)naphthalenone]: the inhibition at 10 µM in experiment [1] stood at 1%. Also, the inhibition at 15 µM on 5-lipoxygenase (read-out: % Inhibition 5-HETE) and on 5-lipoxygenase (read-out: % Inhibition LTB) was 0% each time.
On to `COc1ccc(CC2(Cc3ccc(OC)cc3)CC(C)(C)c3cc(OC)cc(OC)c3C2=O)cc1` [drawing 85 [A=drawing 87; B=drawing 88]], for which the inhibition in experiment [1] worked out at 16%.
Regarding `COc1ccc2c(c1)C(C)(C)C(c1ccc(OC)c(OC)c1)CC2=O` (centres unmarked), the inhibition in experiment [1] was determined as 28%. For the same compound, the inhibition at 15 µM at 5-lipoxygenase (read-out: % Inhibition 5-HETE) stood at 42%.
As to `COc1cc(OC)c2c(c1)C(C)(C)C(c1ccccc1)CC2=O` (centres unmarked), the inhibition at 10 µM in experiment [1] stood at 6%. Also, the inhibition at 15 µM on 5-lipoxygenase (read-out: % Inhibition 5-HETE) and on 5-lipoxygenase (read-out: % Inhibition LTB) was 0% throughout.
As for `COc1cc(OC)c2c(c1)C(C)(C)C(c1ccc(OC)c(OC)c1)CC2NC(C)=O` (centres unmarked), in experiment [1], the inhibition was found to be 11%. The figures for the inhibition at 15 µM at 5-lipoxygenase (read-out: % Inhibition 5-HETE) and on 5-lipoxygenase (read-out: % Inhibition LTB) were 0% and 4%, respectively.
With `CON=C1CC(c2ccc(OC)c(OC)c2)C(C)(C)c2cc(OC)ccc21` (centres unmarked), the inhibition in experiment [1] is 0%. The inhibition at 15 µM at 5-lipoxygenase (read-out: % Inhibition 5-HETE) was 74%.
`CC(=O)Oc1cc(OC(C)=O)c2c(c1)C(C)(C)[C@H](c1ccc(OC(C)=O)c(OC(C)=O)c1)[C@H](OC(C)=O)C2=O` (relative stereo): in experiment [1], the inhibition at 50 µM was found to be 26%.
As for `CC(=O)Oc1cc(OC(C)=O)c2c(c1)C(C)(C)C(c1ccc(OC(C)=O)c(OC(C)=O)c1)CC2=O` (centres unmarked), the inhibition at 50 µM in experiment [1] was determined as 48%.
`COc1cc(OC)c2c(c1)C(C)(C)[C@H](c1ccc(OC)c(OC)c1)[C@@H](OC(C)=O)C2=O` (relative stereo): the inhibition at 50 µM in experiment [1] is 12%.
With `COc1cc(OC)cc(C2=CC(=O)c3c(OC)cc(OC)cc3C2(C)C)c1`, the inhibition at 15 µM on 5-lipoxygenase (read-out: % Inhibition 5-HETE) and on 5-lipoxygenase (read-out: % Inhibition LTB) was 0% throughout.
With `COc1cc(OC)cc(C2CCC(=O)c3c(OC)cc(OC)cc3C2(C)C)c1` (centres unmarked) [8-(3,5-dimethoxyphenyl)-6,7,8,9-tetradydro-2,4-dimethoxy-9,9-dimethyl-5H-benzocyclohepten-5-one], the inhibition at 15 µM on 5-lipoxygenase (read-out: % Inhibition 5-HETE) and at 5-lipoxygenase (read-out: % Inhibition LTB) was 46% in each case.
As to `COc1cc(OC)c2c(c1)C(C)(C)C(c1ccc(OC)c(OC)c1)CC(Sc1ccccc1)C2=O` (centres unmarked), on 5-lipoxygenase (read-out: % Inhibition 5-HETE), the inhibition at 15 µM came out at 61%.
Take `COc1cc(OC)c2c(c1)C(C)(C)C(c1ccc(OC)c(OC)c1)C=CC2=O` (centres unmarked): at 5-lipoxygenase (read-out: % Inhibition 5-HETE), the inhibition at 15 µM amounted to 48%.
In the case of `CON=C1CC(c2ccc(OC)c(OC)c2)C(C)(C)c2cc(OC)cc(OC)c21` (centres unmarked), the inhibition at 15 µM at 5-lipoxygenase (read-out: % Inhibition 5-HETE) amounted to 55%; on 5-lipoxygenase (read-out: % Inhibition LTB) it was 47%.
Take `COc1ccc(CC2(Cc3ccc(OC)cc3)CC(C)(C)c3cc(OC)cc(OC)c3C2=O)cc1` [drawing 102 [A=drawing 104; B=drawing 105]]: the inhibition at 15 µM on 5-lipoxygenase (read-out: % Inhibition 5-HETE) was determined as 88%.
On to `COc1cc(OC)c2c(c1)C(C)(C)C(c1ccc(OC)c(OC)c1)C(C)C2=NO` (centres unmarked), for which, in experiment [1], the inhibition at 10 µM turned out to be 13%. The inhibition at 15 µM on 5-lipoxygenase (read-out: % Inhibition 5-HETE) is 31%.
